Assay results published in patent US20220062233A1 (The Board of Trustees of the Leland Stanford Junior …, priority 2018, published 2022).
Like-named read-outs stand apart in the source and are kept apart here.

Assays:
wild-type HTT = assay: Wild-type HTT assay in lymphoblastoid cells (LBC), Western blot; format: cell-based, human
Description: (§1) B. Mutant and Wild-Type HTT Assay in Lymphoblastoid Cells (LBC)
(§2) a. Cell Culturing and Compound Treatment
(§3) Lymphoblastoid cells derived from a Huntington's disease patient with 250 CAG repeats in the mutant HTT allele (GM14044 from Coriell Institute) were cultured in RPMI 1640 (Corning Cellgro, 10-040-CV) containing fetal bovine serum (Atlanta Biologicals, S11150). 4×10^5 cells were seeded on a 24-well plate and incubated with testing compound for 3 days. The cell suspension was then transferred to a 1.5 ml Eppendorf tube. Cells were collected by centrifugation and washed once with PBS. After all liquid was removed, the cell pellet was placed at −80° C. for at least 10 minutes. Lysis buffer [30 mM Tris-HCl (pH 8.0), 5 mM NaCl, 0.1% Triton X-100] with the proteinase inhibitor cocktail (P8340 from Sigma-Aldrich) was then added to the cells. Following centrifugation (14 k rpm for 15 min at 4° C.), the supernatant was collected. The protein concentrations were determined by BCA assay (Pierce, ThermoFisher).
(§4) Equal amounts of protein were loaded onto 4-12% gel (Invitrogen, WG1403A). After electrophoresis, the gels were transferred to nitrocellulose membranes by wet transfer at 72V for 3 hrs. […] The protein levels of mutant HTT, wild-type HTT, TBP, and tubulin were determined by immunoblotting with anti-polyQ specific antibody (clone MW1), anti-Huntingtin antibody (Abcam, ab45169), anti-TBP antibody (Sigma, T1827) and anti-alpha tubulin antibody (Sigma, T9026). Blots were imaged on a Li-Cor Odyssey infrared imager. The band intensities were determined by Li-Cor Odyssey software.

mutant HTT [1] = assay: Mutant HTT assay in induced pluripotent stem cells (iPSC); format: cell-based, human; conditions: HD patient iPSCs, one day incubation; numeric bounds; read-out: iPSC IC20 (nM) mHTT
Description: C. Mutant HTT Assay in Induced Pluripotent Stem Cells (iPSC) a. Cell Culturing and Compound Treatment
Huntington's disease patient iPSCs (ND50036 from NINDS) were detached into single cells by Accutase (25058CI from Corning), counted and plated on a 24-well plate coated with Matrigel (354277 from Corning) at density of 7,000 cells/well. After 48 hrs, compounds were added to the cell culture medium mTeSR1 (85850 from StemCell Technologies) and the cells were incubated for one day. The medium was then removed, and the cells were washed with PBS. After all liquid was removed, the plate was placed at −80° C. overnight. Lysis buffer [30 mM Tris-HCl (pH 8.0), 5 mM NaCl, 0.1% Triton X-100] with the complete proteinase inhibitor cocktail (5892791001 from Sigma-Aldrich) was then added to the cells. Cell samples were lysed on an orbital plate shaker at 4° C. at 700 rpm for 30 min. The supernatants from spinning (14 k rpm for 10 min) were collected. The protein concentrations were determined by BCA assay (23225 from Pierce, ThermoFisher). […]
b. Detection of Mutant HTT Protein
Equal amounts of protein lysate collected from each sample were added to a 96-well plate that had been coated with a human HTT specific monoclonal antibody. After washing away any unbound substances, a biotinylated anti-human mutant HTT specific detection antibody was added. Streptavidin-horseradish peroxidase was subsequently added, followed by TMB Substrate Solution, which yielded a blue product that turns yellow when the Stop Solution was added. The intensity of the color measured was in proportion to the amount of mutant HTT bound in the initial step. The mutant HTT values are then interpolated from a standard curve.

M2-8 cells = assay: M2-8 Cell viability Assay; format: cell-based; conditions: at the concentration of 1000 nM
[2] = target: T1, interaction between Supt4h and NGN (subunit of Supt5h) (Homo sapiens, UniProt O00267+P63272); assay: Split Gaussia luciferase complementation assay (M2-8 Luciferase); format: cell-based; conditions: M2-8 cells
T1 construct: expressed in transfected cells
Description: A. Split Gaussia Luciferase Complementation Assay […]
i: pNBR-X1-Supt4-Gluc1 and pNEBR-X1-NGN-Gluc2
The HA-Supt4h and Flag-NGN fragments are amplified by PCR using the plasmid pHA-Supt4h-YC and pFlag-NGN-YN and sub-cloned individually into pcDNA3.1-Gluc1 and pcDNA3.1-Gluc2 (described in “A highly sensitive protein-protein interaction assay based on Gaussia luciferase” published at Nat Methods. 2006 December; 3(12):977-9. Epub 2006 Nov. 12). Then HA-Supt4h-Gluc1 and Flag-NGN-Gluc2 are amplified by PCR and inserted to pNEBR-X1-Hygro (New England BioLabs), which contain RheoSwitch responsive element under the control of RheoSwitch ligand. […]
ii: pNEBR-X1-Supt4h-G1-NGN-G2
PCR products containing the sequence from 5XRE to polyA in pNEBR-X1-NGN-G2 are inserted to pNEBR-X1-Supt4h-G1 at Pcil site to generate Supt4h-G1 and NGN-G2 bidirectional under their own RheoSwitch responsive element and polyA in the same plasmid. […]
b. Stable Cloned Cell Line i: 293-R1 is a cloned cell line which is engineered to constitutively express RSL1 receptor/activator by transfecting HEK 293 cells with pNEBR-R1 plasmid (New England BioLabs) and selected with blasticidin. […]
ii: M2-8 is a cloned 293-R1 cell which can inducibly express pNEBR-X1-Supt4h-G1-NGN-G2 by addition of RSL1. Two point mutations ([…] and M110I) are introduced to the GL1 and GL2 for better stability according to “A high-throughput cell-based Gaussia luciferase reporter assay for identifying modulators of fibulin-3 secretion” published in J Biomol Screen. 2013 July; 18(6):647-58. The cell line is selected by hygromycin. […]
c. Cell Culture and Transfection Condition
All the HEK-293 cells and derivative clones are maintained in DMEM containing 10% FBS plus corresponding antibiotics (250 μg/ml hygromycin B, 10 μg/ml blasticidin or both) at 37° C., 5% CO2. All the transfections are done by using Lipofectamine 2000 (Invitrogen) according to the manufacturer's instructions. […]
d. Bioluminescence Assay from Cell Lysates
Plasmids harboring the Gluc1 and Gluc2 are co-transfected in a 1:1 ratio into 293-R1 cells plated on tissue culture treated 24-well plates using Lipofectamine 2000 according to the manufacturer's instructions. For stable M2-8 cells, the cells are directly plated into 96-well or 384-well white plates. Twenty-four hours later, RheoSwitch ligand with or without test compound is added to the cells for induction/drug treatment. After 24 hr, the cells are washed with PBS and the plate was stored at −20° C. overnight. Lysis buffer [30 mM Tris-HCl (pH 8.0) 5 mM NaCl, 0.1% Triton X-100] with 10 μg/ml native coelenterazine (Nanolight Technology) is then added to the cells at room temperature for one hour in the dark. After shaking for about 1 min, 40 μl of cell lysate are transferred to a white 96-well plate. For M2-8 in white micro plate, no transfer is needed. Signal intensities (integrated 100 ms) were read on Tecan Infinite M200 or M1000.
The split Gaussia luciferase complementation assay measures the interaction between Sup4h and NGN. NGN is the subunit of Supt5h that binds to Supt4h.

mutant HTT [3] = assay: Mutant HTT assay in lymphoblastoid cells (LBC), Western blot; format: cell-based, human; conditions: read-out: LBC IC20 (nM) mHTT, 3 days compound treatment
Description: as §1, §2, §3, §4

[4] = tested on: Lymphoblastoid cells (GM14044); assay: LBC cell viability (Cell Titer-Glo); format: cell-based, human; conditions: at the concentration of IC20, 3-day compound treatment
Description: Cell viability was determined by Cell Titer-Glo reagent (Promega, PRG9243). After 3-day compound treatment, 15 μl of cell suspension was taken out from plate and incubated with 10 μl of CTG reagent. The values of reaction mixture were detected by Tecan.

[5] = 3 days compound treatment, read-out: LBC IC20 (nM) wtHTT

Row | SMILES | IC20 (wild-type HTT; [5]) [nM] | IC20 (mutant HTT [1]) [nM] | M2-8 Cell viability (M2-8 cells) | IC50 [2] [nM] | IC20 (mutant HTT [3]) [nM] | LBC viability at IC20 [4] | IC20 (wild-type HTT; read-out: LBC IC20 (nM) wtHTT, 3 days compound treatment) [nM]
1 | OB(O)c1cccc(CN[C@@H]2CCCc3c2[nH]c2ccc(Br)cc32)c1 (single isomer, unassigned) [Compound 39] | > 1000 | > 100 | + (cell viability is greater than 50% at the concentration of 1000 nM) | ≤ 100 | > 1000 |  | 
2 | COCC(N[C@@H]1CCCc2c1[nH]c1ccc(Br)cc21)c1ccc(C(C)(C)O)cc1 (single isomer, unassigned) [Compound 53] | > 500 | > 100 | + (cell viability is greater than 50% at the concentration of 1000 nM) | 101 to 300 | > 1000 |  | 
3 | Brc1ccc2[nH]c3c(c2c1)CCC[C@H]3NCc1cccc2ccccc12 [Compound 19, (R)-6-bromo-N-(naphthalen-1-ylmethyl)-2,3,4,9-tetrahydro-1H-carbazol-1-amine] | > 1000 |  | + (cell viability is greater than 50% at the concentration of 1000 nM) | ≤ 100 | 101 to 300 | * (cell viability is greater than 60% at the concentration of IC20) | 
4 | Nc1ccc(CN[C@@H]2CCCc3c2[nH]c2ccc(Br)cc32)cc1 [Compound 21, (R)—N-(4-aminobenzyl)-6-bromo-2,3,4,9-tetrahydro-1H-carbazol-1-amine] | > 1000 |  | + (cell viability is greater than 50% at the concentration of 1000 nM) | ≤ 100 | 101 to 300 | * (cell viability is greater than 60% at the concentration of IC20) | 
5 | COc1cccc(CN[C@@H]2CCCc3c2[nH]c2ccc(Br)cc32)c1 [Compound 24, (R)-6-bromo-N-(3-methoxybenzyl)-2,3,4,9-tetrahydro-1H-carbazol-1-amine] | > 1000 |  | + (cell viability is greater than 50% at the concentration of 1000 nM) | ≤ 100 | 101 to 300 | * (cell viability is greater than 60% at the concentration of IC20) | 
6 | COc1ccc(CN[C@@H]2CCCc3c2[nH]c2ccc(Br)cc32)cc1 [Compound 25, (R)-6-bromo-N-(4-methoxybenzyl)-2,3,4,9-tetrahydro-1H-carbazol-1-amine] | > 1000 |  | + (cell viability is greater than 50% at the concentration of 1000 nM) | 101 to 300 | 301 to 1000 | * (cell viability is greater than 60% at the concentration of IC20) | 
7 | N#Cc1ccc(CN[C@@H]2CCCc3c2[nH]c2ccc(Br)cc32)cc1 [Compound 26, (R)-4-(((6-bromo-2,3,4,9-tetrahydro-1H-carbazol-1-yl)amino)methyl)benzonitrile] |  |  | + (cell viability is greater than 50% at the concentration of 1000 nM) | 101 to 300 | 101 to 300 | * (cell viability is greater than 60% at the concentration of IC20) | > 1000
8 | COCc1ccc(CN[C@@H]2CCCc3c2[nH]c2ccc(Br)cc32)cc1 [Compound 27, (R)-6-bromo-N-(4-(methoxymethyl)benzyl)-2,3,4,9-tetrahydro-1H-carbazol-1-amine] | > 1000 |  | + (cell viability is greater than 50% at the concentration of 1000 nM) | ≤ 100 | 101 to 300 | * (cell viability is greater than 60% at the concentration of IC20) | 
9 | COCC(N[C@@H]1CCCc2c1[nH]c1ccc(Br)cc21)c1ccc(CN2CCOCC2)cc1 (stereo partly shown) [Compound 61] |  |  | + (cell viability is greater than 50% at the concentration of 1000 nM) | 101 to 300 |  |  | 
10 | COCC(N[C@@H]1CCCc2c1[nH]c1ccc(Br)cc21)c1ccc(CN2CCN(C(C)=O)CC2)cc1 (stereo partly shown) [Compound 62] |  |  | + (cell viability is greater than 50% at the concentration of 1000 nM) | 101 to 300 |  |  | 
11 | OCCOCc1ccc(CN[C@@H]2CCCc3c2[nH]c2ccc(Br)nc32)cc1 [Compound 64] |  |  | + (cell viability is greater than 50% at the concentration of 1000 nM) | 101 to 300 |  |  | 
12 | OCc1ccc(CN[C@@H]2CCCc3c2[nH]c2ccc(Br)nc32)s1 [Compound 67] |  |  | + (cell viability is greater than 50% at the concentration of 1000 nM) | ≤ 100 |  |  | 
13 | Brc1ccc2[nH]c3c(c2c1)CCC[C@H]3NCc1ccc(CN2CCOCC2)cc1 [Compound 72] |  |  | + (cell viability is greater than 50% at the concentration of 1000 nM) | ≤ 100 |  |  | 
14 | CC(=O)N1CCN(Cc2ccc(CN[C@@H]3CCCc4c3[nH]c3ccc(Br)cc43)cc2)CC1 [Compound 73] |  |  | + (cell viability is greater than 50% at the concentration of 1000 nM) | 101 to 300 |  |  | 
